In paper PMC7051184, “C9orf72 arginine-rich dipeptide repeat proteins disrupt karyopherin-mediated nuclear import” (eLife, 2020):
Where a SMILES comes first, the peptide text is derived from it.

Key:
importin α = assay: DPR aggregation assay and western blot, ImpA; format: biochemical, human; conditions: for ImpA band density, Pellet / ImpA band density, Supernatant: 100 µM 10mer in 2.5 mg/ml HEK lysate, normalized to untreated HEK; for ImpA band density, % untr control: Fig 5-suppl 3C, normalized to untreated HEK on same membrane;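 on ImpA band density, % untr control: RNA rows contain added 20 µg total HEK RNA while no-RNA rows lack it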
Method: (§1) Supernatant and pellet fractions (for all 5 DPRs, and control/buffer only) were prepared as in the nuclear transport assays, by adding 100 µM 10mers to 2.5 mg/ml HEK lysate in 100 µL TRB. Supernatants were boiled in Laemmli (BioRad) for 5 min. Pellets were boiled for 15 min followed by sonication in order to fully disperse aggregates for SDS-PAGE. Equal volumes of supernatant and pellet fractions were run on 4–12% Bolt Bis-Tris Plus gels (ThermoFisher), transferred to nitrocellulose membrane using an iBlot2 dry blotting system (ThermoFisher). Protein loading was analyzed by BLOT-Faststain (G-biosciences, St. Louis, MO), according to the manufacterers’ instructions. For immunodetection, membranes were blocked with 5% non-fat milk in TBST and probed by sequential incubation with the primary antibodies as detailed in the table below. Detection was by HRP-conjugated secondary antibodies/chemiluminescence using an ImageQuant LAS 4000 system (GE, Chicago, IL). To permit sequential probing of membranes without stripping, signals were quenched by incubation with prewarmed 30% H20_2 for 20 min ([Sennepin et al., 2009]). Band intensities were measured by ImageQuant software. For pellet vs. supernatant fractions, all were expressed as percent untreated control. For blots in Figure 1E, samples were run on 4–20% SDS PAGE minigels (ThermoFisher) and blotted to PVDF membranes (Immun-Blot PVDF, Bio-Rad) using the Bio-Rad TransBlot Turbo apparatus, and probed as above. The chemiluminescence signal was captured with a Bio-Rad ChemiDoc XRS+ digital imaging system.

TDP-43 = assay: DPR aggregation assay and western blot, TDP-43; format: biochemical, human; conditions: for TDP43 band density, % untr control: Fig 5-suppl 3C, normalized to untreated HEK on same membrane; for TDP43 band density, % control: normalized to untreated HEK cells on the same membrane
Method: as §1

RanGAP1 = assay: DPR aggregation assay and western blot, RanGAP1; format: biochemical, human; conditions: for RanGAP1 band density, Pellet / RanGAP1 band density, Supernatant: 100 µM 10mer in 2.5 mg/ml HEK lysate, normalized to untreated HEK; for RanGAP1 band density, % untr control: Fig 5-suppl 3C, normalized to untreated HEK on same membrane
Method: as §1

Matrin-3 = assay: DPR aggregation assay and western blot, Matrin-3; format: biochemical, human; conditions: normalized to untreated HEK cells on the same membrane
Method: as §1

Nup98 = assay: DPR aggregation assay and western blot, Nup98; format: biochemical, human; conditions: 100 µM 10mer in 2.5 mg/ml HEK lysate, normalized to untreated HEK
Method: as §1

Nup62 = assay: DPR aggregation assay and western blot, Nup62; format: biochemical, human; conditions: 100 µM 10mer in 2.5 mg/ml HEK lysate, normalized to untreated HEK
Method: as §1

Ran = assay: DPR aggregation assay and western blot, Ran; format: biochemical, human; conditions: for Ran band density, Pellet / Ran band density, Supernatant: 100 µM 10mer in 2.5 mg/ml HEK lysate, normalized to untreated HEK; for Ran band density, % untr control: Fig 5-suppl 3C, normalized to untreated HEK on same membrane;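 on Ran band density, % untr control: RNA rows contain added 20 µg total HEK RNA while no-RNA rows lack it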
Method: as §1

RPS6 = assay: DPR aggregation assay and western blot, RPS6; format: biochemical, human; conditions: for Rps6 band density, % untr control: Fig 5-suppl 3C, normalized to untreated HEK on same membrane; for RPS6 band density, % control: normalized to untreated HEK cells on the same membrane;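 on Rps6 band density, % untr control: RNA rows contain added 20 µg total HEK RNA while no-RNA rows lack it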
Method: as §1

BSA = assay: Bead halo assay, biotinylated BSA-coated beads (non-specific control); format: binding; conditions: AF488-labeled
Method: Purified WT importin β (pKW485) diluted to 10 µM in XB was combined with 10-molar excess of Alexa Fluor 647 NHS ester (ThermoFisher), using freshly-prepared 10 mM dye in anhydrous DMSO. After incubation on ice for 2 hr, the sample was dialyzed in PBS and concentrated on 30kD MWCO filter (Millipore Sigma) before storage. A similar protocol was used to label BSA with 10-molar excess Sulfo-NHS-LC-biotin (ThermoFisher), followed by dialysis in PBS.
The bead halo assay was carried out as described with minor modifications ([Patel and Rexach, 2008]), using […] polystyrene beads coated with neutravidin (for biotinylated proteins) or glutathione (for GST-fusion proteins) (Spherotech, Lake Forest, IL). Beads were coated overnight at 4°C at saturating concentrations per manufacturers’ instructions and rinsed 2x in binding buffer (20 mM HEPES [pH 7.4], 150 mM KOAc, 2 mM Mg(OAc)2, 1 mM DTT, 0.1% Tween-20). Immediately prior to the assay, fluorescent bait proteins and beads were combined with 4x assay buffer (40 mM EDTA, 40 mg/ml BSA, 500 mM NaCl, and 0.2% Tween) to a total of 40 µL per well, in optical glass-bottom 96-well plates (Cellvis, Mountain View, CA). Reactions were allowed to equilibrate at room temperature for a minimum of 30 min prior to imaging at 100x on an LSM800 confocal microscope (Zeiss, Oberkochen, Germany). […]

hnRNPA2/B1 = assay: DPR aggregation assay and western blot, hnRNPA2/B1; format: biochemical, human; conditions: normalized to untreated HEK cells on the same membrane
Method: as §1

transportin-1 (Tnpo1) = assay: DPR aggregation assay and western blot, Tnpo1; format: biochemical, human; conditions: for Tnpo1 band density, Pellet / Tnpo1 band density, Supernatant: 100 µM 10mer in 2.5 mg/ml HEK lysate, normalized to untreated HEK; for TNPO1 band density, % untr control: Fig 5-suppl 3C, normalized to untreated HEK on same membrane;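 on TNPO1 band density, % untr control: RNA rows contain added 20 µg total HEK RNA while no-RNA rows lack it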
Method: as §1

[1] = Pellet, no RNA (Untreated), blot 1
[2] = Pellet, no RNA (Untreated), blot 2
[3] = Supernatant, no RNA (Untreated), blot 1
[4] = Supernatant, no RNA (Untreated), blot 2

Q: Which results are given for `N=C(N)NCCC[C@H](NC(=O)[C@@H]1CCCN1C(=O)[C@H](CCCNC(=N)N)NC(=O)[C@@H]1CCCN1C(=O)[C@H](CCCNC(=N)N)NC(=O)[C@@H]1CCCN1C(=O)[C@H](CCCNC(=N)N)NC(=O)[C@@H]1CCCN1C(=O)[C@H](CCCNC(=N)N)NC(=O)[C@@H]1CCCN1C(=O)[C@H](CCCNC(=N)N)NC(=O)[C@@H]1CCCN1C(=O)[C@H](CCCNC(=N)N)NC(=O)[C@@H]1CCCN1C(=O)[C@H](CCCNC(=N)N)NC(=O)[C@@H]1CCCN1C(=O)[C@H](CCCNC(=N)N)NC(=O)[C@@H]1CCCN1C(=O)[C@H](CCCNC(=N)N)NC(=O)[C@@H]1CCCN1)C(=O)O` [PR10] (H-PRPRPRPRPRPRPRPRPRPR-OH; N-terminus and C-terminus assumed)?
A: ImpA band density, Pellet (importin α; Blot 1): 170.0 % control; ImpA band density, Supernatant (importin α; Blot 1): 78.1 % control; ImpA band density, Pellet (importin α; Blot 2): 198.7 % control; ImpA band density, Supernatant (importin α; Blot 2): 90.0 % control; ImpA band density, % untr control (importin α; Pellet, RNA, blot 1): 171.92%; ImpA band density, % untr control (importin α; Pellet, RNA, blot 2): 154.07%; ImpA band density, % untr control (importin α; [1]): 177.99%; ImpA band density, % untr control (importin α; [2]): 181.79%; ImpA band density, % untr control (importin α; Supernatant, RNA, blot 1): 85.78%; ImpA band density, % untr control (importin α; Supernatant, RNA, blot 2): 111.13%; ImpA band density, % untr control (importin α; [3]): 79.74%; ImpA band density, % untr control (importin α; [4]): 105.29%; TDP43 band density, % untr control (TDP-43; Pellet, RNA, blot 1): 155.77%; TDP43 band density, % untr control (TDP-43; Pellet, RNA, blot 2): 157.99%; TDP43 band density, % untr control (TDP-43; [1]): 180.16%; TDP43 band density, % untr control (TDP-43; [2]): 165.43%; TDP43 band density, % untr control (TDP-43; Supernatant, RNA, blot 1): 71.23%; TDP43 band density, % untr control (TDP-43; Supernatant, RNA, blot 2): 80.31%; TDP43 band density, % untr control (TDP-43; [3]): 41.29%; TDP43 band density, % untr control (TDP-43; [4]): 36.83%; TDP43 band density, % control (TDP-43; Pellet, Blot 1): 424.3 % control; TDP43 band density, % control (TDP-43; Pellet, Blot 2): 185.6 % control; TDP43 band density, % control (TDP-43; Supernatant, Blot 1): 54.8 % control; TDP43 band density, % control (TDP-43; Supernatant, Blot 2): 45.9 % control; RanGAP1 band density, Pellet (RanGAP1; Blot 1): 413.6 % control; RanGAP1 band density, Supernatant (RanGAP1; Blot 1): 76.6 % control; RanGAP1 band density, Pellet (RanGAP1; Blot 2): 481.7 % control; RanGAP1 band density, Supernatant (RanGAP1; Blot 2): 84.2 % control; RanGAP1 band density, % untr control (RanGAP1; Pellet, RNA, blot 1): 309.83%; RanGAP1 band density, % untr control (RanGAP1; Pellet, RNA, blot 2): 267.45%; RanGAP1 band density, % untr control (RanGAP1; [1]): 288.68%; RanGAP1 band density, % untr control (RanGAP1; [2]): 278.19%; RanGAP1 band density, % untr control (RanGAP1; Supernatant, RNA, blot 1): 115.69%; RanGAP1 band density, % untr control (RanGAP1; Supernatant, RNA, blot 2): 95.48%; RanGAP1 band density, % untr control (RanGAP1; [3]): 62.58%; RanGAP1 band density, % untr control (RanGAP1; [4]): 76.25%; Matrin-3 band density, % control (Matrin-3; Pellet, Blot 1): 407.8 % control; Matrin-3 band density, % control (Matrin-3; Pellet, Blot 2): 159.1 % control; Matrin-3 band density, % control (Matrin-3; Supernatant, Blot 1): 25.9 % control; Matrin-3 band density, % control (Matrin-3; Supernatant, Blot 2): 42.9 % control; Nup98 band density, Pellet (Nup98; Blot 1): 109.9 % control; Nup98 band density, Supernatant (Nup98; Blot 1): 57.2 % control; Nup98 band density, Pellet (Nup98; Blot 2): 150.1 % control; Nup98 band density, Supernatant (Nup98; Blot 2): 67.5 % control; Nup62 band density, Pellet (Nup62; Blot 1): 204.0 % control; Nup62 band density, Supernatant (Nup62; Blot 1): 154.3 % control; Nup62 band density, Pellet (Nup62; Blot 2): 227.1 % control; Nup62 band density, Supernatant (Nup62; Blot 2): 111.0 % control; Ran band density, Pellet (Ran; Blot 1): 101.8 % control; Ran band density, Supernatant (Ran; Blot 1): 104.7 % control; Ran band density, Pellet (Ran; Blot 2): 132.9 % control; Ran band density, Supernatant (Ran; Blot 2): 105.7 % control; Ran band density, % untr control (Ran; Pellet, RNA, blot 1): 201.97%; Ran band density, % untr control (Ran; Pellet, RNA, blot 2): 271.01%; Ran band density, % untr control (Ran; [1]): 172.26%; Ran band density, % untr control (Ran; [2]): 224.02%; Ran band density, % untr control (Ran; Supernatant, RNA, blot 1): 114.46%; Ran band density, % untr control (Ran; Supernatant, RNA, blot 2): 110.30%; Ran band density, % untr control (Ran; [3]): 105.51%; Ran band density, % untr control (Ran; [4]): 113.60%; Rps6 band density, % untr control (RPS6; Pellet, RNA, blot 1): 396.86%; Rps6 band density, % untr control (RPS6; Pellet, RNA, blot 2): 295.15%; Rps6 band density, % untr control (RPS6; [1]): 455.82%; Rps6 band density, % untr control (RPS6; [2]): 297.04%; Rps6 band density, % untr control (RPS6; Supernatant, RNA, blot 1): 8.34%; Rps6 band density, % untr control (RPS6; Supernatant, RNA, blot 2): 9.83%; Rps6 band density, % untr control (RPS6; [3]): 2.35%; Rps6 band density, % untr control (RPS6; [4]): 1.09%; RPS6 band density, % control (RPS6; Pellet, Blot 1): 219.0 % control; RPS6 band density, % control (RPS6; Pellet, Blot 2): 275.0 % control; RPS6 band density, % control (RPS6; Supernatant, Blot 1): 3.7 % control; RPS6 band density, % control (RPS6; Supernatant, Blot 2): 6.4 % control; Binding to BSA-coated beads (BSA; 200 nM, binding buffer): modest non-specific binding; Nonspecific binding to control beads (BSA; 1 mg/ml neuronal lysate added): nonspecific binding decreased; hnRNPA2/B1 band density, % control (hnRNPA2/B1; Pellet, Blot 1): 426.4 % control; hnRNPA2/B1 band density, % control (hnRNPA2/B1; Pellet, Blot 2): 309.1 % control; hnRNPA2/B1 band density, % control (hnRNPA2/B1; Supernatant, Blot 1): 53.5 % control; hnRNPA2/B1 band density, % control (hnRNPA2/B1; Supernatant, Blot 2): 56.7 % control; Tnpo1 band density, Pellet (transportin-1 (Tnpo1); Blot 1): 258.1 % control; Tnpo1 band density, Supernatant (transportin-1 (Tnpo1); Blot 1): 76.9 % control; Tnpo1 band density, Pellet (transportin-1 (Tnpo1); Blot 2): 476.3 % control; Tnpo1 band density, Supernatant (transportin-1 (Tnpo1); Blot 2): 65.0 % control; TNPO1 band density, % untr control (transportin-1 (Tnpo1); Pellet, RNA, blot 1): 162.49%; TNPO1 band density, % untr control (transportin-1 (Tnpo1); Pellet, RNA, blot 2): 169.58%; TNPO1 band density, % untr control (transportin-1 (Tnpo1); [1]): 284.53%; TNPO1 band density, % untr control (transportin-1 (Tnpo1); [2]): 326.13%; TNPO1 band density, % untr control (transportin-1 (Tnpo1); Supernatant, RNA, blot 1): 75.09%; TNPO1 band density, % untr control (transportin-1 (Tnpo1); Supernatant, RNA, blot 2): 93.47%; TNPO1 band density, % untr control (transportin-1 (Tnpo1); [3]): 65.77%; TNPO1 band density, % untr control (transportin-1 (Tnpo1); [4]): 83.87%
